Data on two compounds can be found in ChEMBL document CHEMBL1201862, “PubChem BioAssay data set” (2004).

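Exposure lasted 48 hours, with cells grown in 96-well plates and compounds tested at five concentrations. GI50 is the concentration that inhibits growth by half.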 The source made the active and inactive calls. Rule as the data show it: active = GI50 up to about 1.1 µM and inactive = higher. Some results are limits rather than exact numbers.

Test systems include COLO 205; M14; NCI-H460; NCI/ADR-RES; SF-295; HCT-116; HCT-15; IGROV-1; T47D; MDA-MB-435; HL-60; SF-539; A498; HCC 2998; SN12C; NCI-H522; LOX IMVI; SR; RXF 393; CAKI-1.
What all share (experiment): inhibition of tumour cell growth, NCI panel, 48 h

With `O=C(CSc1nc2ccc(I)cc2c(=O)n1Cc1ccccc1)N/N=C/c1ccccc1`, the GI50 in the experiment on COLO 205 is > 100 µM (inactive); in the experiment on M14, 43.3 µM (inactive); in the experiment on NCI-H460, 27 µM (inactive); with NCI/ADR-RES it was 23.8 µM (inactive); in the experiment with SF-295, 11.4 µM (inactive); in the experiment on HCT-116, 33.9 µM (inactive). The GI50 was 22.1 µM in the experiment on HCT-15; 14.8 µM (inactive) in the experiment on IGROV-1; 23.1 µM (inactive) in the experiment on T47D; > 100 µM (inactive) with MDA-MB-435; > 100 µM (inactive) in the experiment with HL-60; 26.9 µM (inactive) in the experiment with SF-539. For the same compound, the GI50 with A498 is 15.2 µM (inactive); with HCC 2998, 67.1 µM (inactive); in the experiment with SN12C, 66.1 µM (inactive); in the experiment with NCI-H522, 18.1 µM (inactive); in the experiment with LOX IMVI, 41.7 µM (inactive); in the experiment on SR, 13.5 µM (inactive). Also, the GI50 was 8.13 µM (inactive) in the experiment with RXF 393 and 4.01 µM (inactive) in the experiment with CAKI-1.
For the compound `N#Cc1c(/C=C/c2ccccc2)c2c([nH]c1=S)CCCCC2`, the GI50 is > 100 µM (inactive) in the experiment with COLO 205; > 100 µM (inactive) with M14; 4.9 µM (inactive) with NCI-H460; > 100 µM (inactive) with NCI/ADR-RES; > 100 µM (inactive) in the experiment with SF-295; > 100 µM (inactive) in the experiment on HCT-116. The GI50 was above 100 µM in the experiment on HCT-15; > 100 µM (inactive) in the experiment with IGROV-1; > 100 µM (inactive) with T47D; > 100 µM (inactive) with MDA-MB-435; > 100 µM (inactive) with HL-60; > 100 µM (inactive) in the experiment with SF-539. Also, the GI50 is > 100 µM (inactive) in the experiment with A498; > 100 µM (inactive) with HCC 2998; > 100 µM (inactive) in the experiment with SN12C; > 100 µM (inactive) with NCI-H522; > 100 µM (inactive) with LOX IMVI; 84.7 µM (inactive) in the experiment with SR. Moreover, the GI50 with RXF 393 and with CAKI-1 was > 100 µM (inactive) each time.
